Reference: US6737383B1, “Herbicidal oxadiazolidines” (priority 1999, dated 2004)

How the values were obtained:
blackgrass = assay: Test B pre/postemergence blackgrass; type: in vivo, Alopecurus myosuroides
Summary of the method: (§1)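 Herbicidal effect was estimated by eye on a ten-point control scale after plants spent twelve to sixteen days in a greenhouse following soil or foliar treatment. Foliar sprays targeted plants at one to four leaves; all doses were formulated in a non-phytotoxic solvent with surfactant.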

surinam grass = assay: Test B pre/postemergence surinam grass; type: in vivo, Brachiaria decumbens
Summary of the method: as §1

cocklebur = assay: Test B pre/postemergence cocklebur; type: in vivo, Xanthium strumarium
Summary of the method: as §1

corn = assay: Test B pre/postemergence corn; type: in vivo, Zea mays
Summary of the method: as §1

crabgrass = assay: Test B pre/postemergence crabgrass; type: in vivo, Digitaria sanguinalis
Summary of the method: as §1

giant foxtail = assay: Test B pre/postemergence giant foxtail; type: in vivo, Setaria faberii
Summary of the method: as §1

pigweed = assay: Test B pre/postemergence pigweed; type: in vivo, Amaranthus retroflexus
Summary of the method: as §1

rape = assay: Test B pre/postemergence rape; type: in vivo, Brassica napus
Summary of the method: as §1

soybean = assay: Test B pre/postemergence soybean; type: in vivo, Glycine max
Summary of the method: as §1

sugar beet = assay: Test B pre/postemergence sugar beet; type: in vivo, Beta vulgaris
Summary of the method: as §1

wheat = assay: Test B pre/postemergence wheat; type: in vivo, Triticum aestivum
Summary of the method: as §1

purple nutsedge = assay: Test B pre/postemergence purple nutsedge; type: in vivo, Cyperus rotundus
Summary of the method: as §1

rice = assay: Test B flood test rice; type: in vivo, Oryza sativa
Summary of the method: (§2)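 Flood test on plants grown to the 2-leaf stage; treated plants kept in greenhouse twelve to sixteen days, then visually rated against controls on a 0 (no effect) to 10 (complete control) scale.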

smallflower flatsedge = assay: Test B flood test smallflower flatsedge; type: in vivo, Cyperus difformis
Summary of the method: as §2

duck salad = assay: Test B flood test duck salad; type: in vivo, Heteranthera limosa
Summary of the method: as §2

bamyardgrass = assay: Test B flood test barnyardgrass; type: in vivo, Echinochloa crus-galli
Summary of the method: as §2

[1] = Preemergence, Rate 62 g/ha, scale of 0 to 10 where 0 is no effect and 10 is complete control
[2] = Preemergence, Rate 125 g/ha, 0 is no effect, 10 is complete control
[3] = Preemergence, Rate 250 g/ha, scale 0 to 10, 0 is no effect, 10 is complete control
[4] = Preemergence, Rate 500 g/ha, scale of 0 to 10 where 0 is no effect and 10 is complete control
[5] = Rate 62 g/ha, Postemergence, scale of 0 to 10 where 0 is no effect and 10 is complete control
[6] = Rate 125 g/ha, Postemergence, scale 0 to 10
[7] = Rate 500 g/ha, Postemergence, scale 0 to 10
[8] = Rate 62 g/ha, headed Pre-emergence (flood test species), scale 0 to 10 (0 no effect, 10 complete control)
[9] = Rate 125 g/ha, Pre-emergence, flood test species, scale 0 to 10 where 0 is no effect and 10 is complete control
[10] = Rate 250 g/ha, Pre-emergence, flood-test species, scale 0 to 10, 0 is no effect, 10 is complete control
[11] = Rate 500 g/ha, Pre-emergence, flood test species, scale 0 to 10 (0 no effect, 10 complete control)

CC(C)N(C(=O)n1oc(=O)n(Cc2ccco2)c1=O)c1ccc(Cl)cc1 [Compound 206]
3: Crabgrass plant response rating (crabgrass; [3]) | Giant foxtail plant response rating (0 to 10 scale) (giant foxtail; [2]) | Plant response rating, Redroot pigweed (pigweed; [4]) | Plant response rating (0 to 10; 0 is no effect, 10 is complete control), Redroot pigweed (pigweed; Rate 250 g/ha, Postemergence)
0: Blackgrass plant response rating (blackgrass; [1]) | Blackgrass plant response rating (0 to 10 scale) (blackgrass; [2]) | Blackgrass plant response rating (blackgrass; [3]) | Plant response rating, Blackgrass (blackgrass; [4]) | Blackgrass plant response rating (blackgrass; [5]) | Blackgrass plant response rating (blackgrass; [6]) | Plant response rating (0 to 10; 0 is no effect, 10 is complete control), Blackgrass (blackgrass; Rate 250 g/ha, Postemergence) | Blackgrass plant response rating (blackgrass; [7]) | B. signalgrass plant response rating (surinam grass; [1]) | B. signalgrass plant response rating (0 to 10 scale) (surinam grass; [2]) | B. signalgrass plant response rating (surinam grass; [3]) | Plant response rating, B. signalgrass (surinam grass; [4]) | B. signalgrass plant response rating (surinam grass; [5]) | B. signalgrass plant response rating (surinam grass; Rate 125 g/ha, Postemergence, scale 0 (no effect) to 10 (complete control)) | Plant response rating, B. signalgrass (surinam grass; Rate 250 g/ha, Postemergence, scale 0 to 10, 0 is no effect, 10 is complete control) | B. signalgrass plant response rating (surinam grass; Rate 500 g/ha, Postemergence, scale 0 to 10, 0 no effect, 10 complete control) | Cocklebur plant response rating (cocklebur; [1]) | Cocklebur plant response rating (0 to 10 scale) (cocklebur; [2]) | Cocklebur plant response rating (cocklebur; [3]) | Plant response rating, Cocklebur (cocklebur; [4]) | Cocklebur plant response rating (cocklebur; [5]) | Cocklebur plant response rating (cocklebur; [6]) | Plant response rating (0 to 10; 0 is no effect, 10 is complete control), Cocklebur (cocklebur; Rate 250 g/ha, Postemergence) | Cocklebur plant response rating (cocklebur; [7]) | Corn plant response rating (corn; [1]) | Corn plant response rating (0 to 10 scale) (corn; [2]) | Corn plant response rating (corn; [3]) | Plant response rating, Corn (corn; [4]) | Corn plant response rating (corn; [5]) | Corn plant response rating (corn; [6]) | Plant response rating (0 to 10; 0 is no effect, 10 is complete control), Corn (corn; Rate 250 g/ha, Postemergence) | Corn plant response rating (corn; [7]) | Crabgrass plant response rating (crabgrass; [1]) | Crabgrass plant response rating (0 to 10 scale) (crabgrass; [2]) | Crabgrass plant response rating (crabgrass; [5]) | Crabgrass plant response rating (crabgrass; [6]) | Plant response rating (0 to 10; 0 is no effect, 10 is complete control), Crabgrass (crabgrass; Rate 250 g/ha, Postemergence) | Crabgrass plant response rating (crabgrass; [7]) | Giant foxtail plant response rating (giant foxtail; [1]) | Giant foxtail plant response rating (giant foxtail; [5]) | Giant foxtail plant response rating (giant foxtail; [6]) | Plant response rating (0 to 10; 0 is no effect, 10 is complete control), Giant foxtail (giant foxtail; Rate 250 g/ha, Postemergence) | Giant foxtail plant response rating (giant foxtail; [7]) | Redroot pigweed plant response rating (pigweed; [1]) | Redroot pigweed plant response rating (0 to 10 scale) (pigweed; [2]) | Redroot pigweed plant response rating (pigweed; [3]) | Redroot pigweed plant response rating (pigweed; [5]) | Redroot pigweed plant response rating (pigweed; [6]) | Redroot pigweed plant response rating (pigweed; [7]) | Rape plant response rating (rape; [1]) | Rape plant response rating (0 to 10 scale) (rape; [2]) | Rape plant response rating (rape; [3]) | Plant response rating, Rape (rape; [4]) | Rape plant response rating (rape; [5]) | Rape plant response rating (rape; [6]) | Plant response rating (0 to 10; 0 is no effect, 10 is complete control), Rape (rape; Rate 250 g/ha, Postemergence) | Rape plant response rating (rape; [7]) | Soybean plant response rating (soybean; [1]) | Soybean plant response rating (soybean; [3]) | Plant response rating, Soybean (soybean; [4]) | Soybean plant response rating (soybean; [5]) | Sugarbeets plant response rating (sugar beet; [1]) | Sugarbeets plant response rating (0 to 10 scale) (sugar beet; [2]) | Sugarbeets plant response rating (sugar beet; [3]) | Plant response rating, Sugarbeets (sugar beet; [4]) | Sugarbeets plant response rating (sugar beet; [5]) | Sugarbeets plant response rating (sugar beet; [6]) | Plant response rating (0 to 10; 0 is no effect, 10 is complete control), Sugarbeets (sugar beet; Rate 250 g/ha, Postemergence) | Sugarbeets plant response rating (sugar beet; [7]) | Wheat plant response rating (wheat; [1]) | Wheat plant response rating (wheat; [3]) | Plant response rating, Wheat (wheat; [4]) | Wheat plant response rating (wheat; [5]) | Wheat plant response rating (wheat; [6]) | Plant response rating (0 to 10; 0 is no effect, 10 is complete control), Wheat (wheat; Rate 250 g/ha, Postemergence) | Nutsedge plant response rating (purple nutsedge; [1]) | Nutsedge plant response rating (0 to 10 scale) (purple nutsedge; [2]) | Nutsedge plant response rating (purple nutsedge; [3]) | Plant response rating, Nutsedge (purple nutsedge; [4]) | Nutsedge plant response rating (purple nutsedge; [5]) | Nutsedge plant response rating (purple nutsedge; [6]) | Plant response rating (0 to 10; 0 is no effect, 10 is complete control), Nutsedge (purple nutsedge; Rate 250 g/ha, Postemergence) | Nutsedge plant response rating (purple nutsedge; [7]) | Rice plant response rating (rice; [8]) | Rice plant response rating (rice; [9]) | Rice plant response rating (rice; [10]) | Rice plant response rating (rice; [11]) | S. Flatsedge plant response rating (smallflower flatsedge; [8]) | S. Flatsedge plant response rating (smallflower flatsedge; [9]) | S. Flatsedge plant response rating (smallflower flatsedge; [10]) | S. Flatsedge plant response rating (smallflower flatsedge; [11]) | Ducksalad plant response rating (duck salad; [8]) | Ducksalad plant response rating (duck salad; [9]) | Ducksalad plant response rating (duck salad; [10]) | Ducksalad plant response rating (duck salad; [11]) | Barnyardgrass plant response rating (bamyardgrass; [8]) | Barnyardgrass plant response rating (bamyardgrass; [9]) | Barnyardgrass plant response rating (bamyardgrass; [10]) | Barnyardgrass plant response rating (bamyardgrass; [11])
8: Plant response rating, Crabgrass (crabgrass; [4]) | Giant foxtail plant response rating (giant foxtail; [3])
2: Plant response rating (0 to 10; 0 is no effect, 10 is complete control), Soybean (soybean; Rate 250 g/ha, Postemergence) | Soybean plant response rating (soybean; [7])
1: Soybean plant response rating (0 to 10 scale) (soybean; [2]) | Soybean plant response rating (soybean; [6])
9: Plant response rating, Giant foxtail (giant foxtail; [4])
